Assay results as given in ChEMBL document CHEMBL3861945 (Medchemcomm, 2016).

How the values were obtained:
Trypanosoma cruzi [1] = experiment: Trypanocidal activity against bloodstream trypomastigote stage of Trypanosoma cruzi Y after 24 hrs by Neubauer chamber method; assay type: functional
[2] = Cytotoxicity against human PBMC assessed as decrease in cell viability after 72 hrs by MTT assay; assay type: toxicity, cell-based; settings: PBMC (peripheral blood mononuclear cells)
[3] = Cytotoxicity against human PC3 cells assessed as decrease in cell viability after 72 hrs by MTT assay; assay type: functional, cell-based; settings: PC-3, 72 h
[4] = Cytotoxicity against human HCT116 cells assessed as decrease in cell viability after 72 hrs by MTT assay; assay type: functional, cell-based; settings: HCT-116, 72 h
[5] = Cytotoxicity against human HL60 cells assessed as decrease in cell viability after 72 hrs by MTT assay; assay type: functional, cell-based; settings: HL-60, 72 h
[6] = Cytotoxicity against human MDA-MB-435 cells assessed as decrease in cell viability after 72 hrs by MTT assay; assay type: functional, cell-based; settings: MDA-MB-435, 72 h
[7] = Cytotoxicity against human SF295 cells assessed as decrease in cell viability after 72 hrs by MTT assay; assay type: functional, cell-based; settings: SF-295, 72 h
Trypanosoma cruzi [8] = experiment: Trypanocidal activity against bloodstream form of Trypanosoma cruzi after 24 hrs; assay type: functional
PC-3 = experiment: Selectivity index, ratio of IC50 for human PBMC to IC50 for human PC3 cells
HCT-116 = experiment: Selectivity index, ratio of IC50 for human PBMC to IC50 for human HCT116 cells
HL-60 = experiment: Selectivity index, ratio of IC50 for human PBMC to IC50 for human HL60 cells
[9] = Selectivity index, ratio of IC50 for human PBMC to IC50 for human MDA-MB-435 cells
SF-295 = experiment: Selectivity index, ratio of IC50 for human PBMC to IC50 for human SF295 cells

Structure (SMILES) | IC50 (Trypanosoma cruzi [1]) | IC50 at 72 h [2] | IC50 [3] | IC50 [4] | IC50 [5] | IC50 [6] | IC50 [7] | IC50 (Trypanosoma cruzi [8]) | Ratio IC50 (PC-3) | Ratio IC50 (HCT-116) | Ratio IC50 (HL-60) | Ratio IC50 [9] | Ratio IC50 (SF-295)
O=C1C(=O)c2ccccc2C2=C1CC(Cn1nncc1-c1ccccc1)O2 (configuration not stated) | > 1000 µM | 5.71 µM | 6.91 µM | 4.84 µM | 4.11 µM | 6.13 µM | 7.78 µM |  |  |  |  |  | 
O=C1C(=O)c2ccccc2C2=C1CC(Cn1cc(C3(O)CCCCC3)nn1)O2 (configuration not stated) |  | > 13.2 µM | 12.4 µM | 12.7 µM | 11 µM | 10.2 µM | 11.1 µM | 89.5 µM |  |  |  |  | 
CC1(C)OC2=C(C(=O)c3ccccc3C2=O)C1n1nncc1-c1ccccc1 (configuration not stated) | > 1000 µM | 7.57 µM | 3.07 µM | 2.5 µM | 2.55 µM | 3.71 µM | 2.8 µM |  |  |  |  |  | 
O=C1C2=C(OC(Cn3nncc3-c3ccccc3)C2)C(=O)c2ccccc21 (configuration not stated) | > 1000 µM | > 14 µM | > 14 µM | 3.36 µM | 3.02 µM | > 14 µM | > 14 µM |  |  |  |  |  | 
CC1(C)OC2=C(C(=O)C(=O)c3ccccc32)C1n1nncc1-c1ccccc1 (configuration not stated) | 113 µM | 2.02 µM | 1.34 µM | 1.37 µM | 1.48 µM | 1.75 µM | 2.37 µM |  | 1.5 |  |  |  | 
CC1(C)CC(n2cc(-c3ccccc3)nn2)C2=C(O1)C(=O)c1ccccc1C2=O (configuration not stated) | > 1000 µM | > 13 µM | > 13 µM | 9.63 µM | 7.94 µM | > 13 µM | > 13 µM |  |  |  |  |  | 
O=C1C2=C(OC(Cn3nnc(-c4ccccc4)c3I)C2)C(=O)c2ccccc21 (configuration not stated) | > 1000 µM | > 10.3 µM | > 10.3 µM | 6.04 µM | 5.4 µM | > 10.3 µM | > 10.3 µM |  |  |  |  |  | 
O=C1C(=O)c2ccccc2C2=C1CC(Cn1nnc(-c3ccccc3)c1I)O2 (configuration not stated) | > 1000 µM | 3.68 µM | 2.17 µM | 4.16 µM | 2.38 µM | 5.65 µM | 3.68 µM |  |  |  |  |  | 
CC1(C)CC(n2nnc(-c3ccccc3)c2I)C2=C(O1)C(=O)c1ccccc1C2=O (configuration not stated) | > 1000 µM | > 9.78 µM | > 9.78 µM | > 9.78 µM | > 9.78 µM | > 9.78 µM | > 9.78 µM |  |  |  |  |  | 
O=C1C2=C(OC(Cn3cc(-c4ccccc4)nn3)C2)C(=O)c2ccccc21 (configuration not stated) | > 1000 µM | > 14 µM | > 14 µM | 8.7 µM | 7.95 µM | > 14 µM | > 14 µM |  |  |  |  |  | 
O=C1C(=O)c2ccccc2C2=C1CC(Cn1cc(C3CCCCC3)nn1)O2 (configuration not stated) |  | 5.17 µM | 2.55 µM | 2.17 µM | 2.25 µM | 1.21 µM | 1.89 µM | 214 µM |  |  |  |  | 
O=C1C(=O)c2ccccc2C2=C1CC(Cn1cc(C3=CCCCC3)nn1)O2 (configuration not stated) |  | 5.31 µM | 4.37 µM | 3.98 µM | 3.29 µM | 2.68 µM | 2.32 µM | 55.3 µM |  |  |  |  | 
O=C1C(=O)c2ccccc2C2=C1CC(Cn1nnc(-c3ccccc3)c1-c1ccccc1)O2 (configuration not stated) | > 1000 µM | 2.16 µM | 1.29 µM | 1.68 µM | 1.15 µM | 1.17 µM | 1.43 µM |  |  |  |  |  | 
CC1(C)OC2=C(C(=O)C(=O)c3ccccc32)[C@H](n2nnc(-c3ccccc3)c2I)[C@H]1Br | > 1000 µM | > 8.48 µM | > 8.48 µM | > 8.48 µM | > 8.48 µM | > 8.48 µM | > 8.48 µM |  |  |  |  |  | 
CC1(C)CC(n2nncc2-c2ccccc2)C2=C(O1)C(=O)c1ccccc1C2=O (configuration not stated) | > 1000 µM | > 13 µM | > 13 µM | > 13 µM | > 13 µM | > 13 µM | > 13 µM |  |  |  |  |  | 
CC1(C)OC2=C(C(=O)c3ccccc3C2=O)C1n1nnc(-c2ccccc2)c1I (configuration not stated) | > 1000 µM | 7.86 µM | 5.73 µM | 5.17 µM | 4.22 µM | 5.69 µM | 4.58 µM |  |  |  |  |  | 
CCCCCCc1cn(CC2CC3=C(O2)c2ccccc2C(=O)C3=O)nn1 (configuration not stated) |  | 5.99 µM | 3.42 µM | 2.13 µM | 2.02 µM | 1.91 µM | 2.7 µM | 86.7 µM |  |  |  |  | 
O=C1C(=O)c2ccccc2C2=C1CC(Cn1cc(-c3ccccc3)nn1)O2 (configuration not stated) | > 1000 µM | 3.24 µM | 2.07 µM | 2.4 µM | 3.55 µM | 3.08 µM | 3.24 µM |  |  |  |  |  | 
CC1(C)OC2=C(C(=O)C(=O)c3ccccc32)[C@H](n2nncc2-c2ccccc2)[C@H]1Br | 125 µM | 1.23 µM | 0.41 µM | 0.47 µM | 0.66 µM | 0.77 µM | 1.59 µM |  | 0.8 - 3 | 0.8 - 3 | 0.8 - 3 | 0.8 - 3 | 0.8 - 3
CC1(C)OC2=C(C(=O)C(=O)c3ccccc32)C1n1nnc(-c2ccccc2)c1I (configuration not stated) | > 1000 µM | 4.08 µM | 2.77 µM | 3.35 µM | 2.59 µM | 3.05 µM | 2.83 µM |  |  |  |  |  | 
CC1(C)CCC2=C(O1)c1ccccc1C(=O)C2=O [LAPACHONE] | 392 µM |  |  |  |  |  |  |  |  |  |  |  | 
